Data taken from patent US20180343857A1, “BIOSOLUBILIZER” (SOLIANCE, priority 2012, published 2018).
Counter-ions that a name gives are not always drawn.

Test system: Avena Fatua
Assay: Biological effectiveness of glyphosate with extemporaneous adjuvant (biomass reduction curves)
Format: in vivo
Details: Avena Fatua in pots; glyphosate 50 to 650 g equivalent acid per hectare; dry biomass 3 weeks after treatment; R = 1 for herbicide without adjuvant
From the text: The preparation of example 2.4 containing terpenic alcohols solubilised by sophorolipids is used as an extemporaneous adjuvant of glyphosate. Glyphosate is a non-selective herbicide, the definition and use of which are described in particular in “The biochemistry and uses of pesticides, 2nd edition” by Kenneth A. Hassall published by VCH (1990). An extemporaneous adjuvant is a preparation added to the phytosanitary preparation at the moment of application and is used to reinforce the action of the latter.
The glyphosate used is a solution of glyphosate in the form of isopropylamine salt titrated to 620 g/l equivalent glyphosate acid.
The effectiveness of the preparation according to the invention is assessed by forming curves of biological effectiveness, that is by determining the ability of the preparations to reduce the biomass of a target plant as a function of the concentration of herbicide. […]
where Y is the dry biomass of the plant (plant cut at the base and dried 24 h at 110° C. in a ventilated heat chamber), X is the concentration of herbicide expressed in grams of glyphosate acid per hectare. C, D, a and b being factors determined by analysing the curve according to the least squares method. […] Its value is determined by applying the above equation with the parameters D, C, a and b of the curve of the herbicide without adjuvant (R=1) according to the least squares method. […]

Structure (SMILES): O=C(O)CNCP(=O)(O)O [Glyphosate (iso-propylamine salt), Glyphosate]
- R (factor of effectiveness): 1
